Results reported in US20250034110A1, “LPAR1 ANTAGONISTS AND USES THEREOF” (Pipeline Therapeutics, Inc., priority 2021, published 2025).
Where two headings read alike, the source gives them in different places.

Target: human LPAR1 (Homo sapiens, UniProt Q92633)
Experiment: In vitro functional assay of lysophosphatidic acid receptor 1 activity (calcium flux)
Assay type: cell-based
[1] = B103 cells stably expressing human LPAR1, calcium flux (Fluo-4 NW) after lysophosphatidic acid (18:1) at EC80, 100 pM to 10 μM, read-out: LPAR1 IC50

Sequence of human LPAR1 (Q92633 whole entry): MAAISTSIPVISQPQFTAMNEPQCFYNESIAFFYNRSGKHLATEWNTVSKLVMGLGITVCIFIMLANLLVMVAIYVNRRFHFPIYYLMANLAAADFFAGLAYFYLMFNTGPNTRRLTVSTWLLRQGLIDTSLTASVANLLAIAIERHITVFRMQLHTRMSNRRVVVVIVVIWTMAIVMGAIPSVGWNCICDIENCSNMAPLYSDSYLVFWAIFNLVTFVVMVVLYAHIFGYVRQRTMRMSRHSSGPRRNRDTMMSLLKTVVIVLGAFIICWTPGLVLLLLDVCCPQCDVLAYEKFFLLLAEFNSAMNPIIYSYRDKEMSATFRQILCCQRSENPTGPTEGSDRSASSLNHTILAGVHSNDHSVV

| Structure (SMILES) | IC50 [1] [nM] | IC50 (LPAR1 IC50) [nM] |
| --- | --- | --- |
| Cc1ccc(NC(=O)N(c2ccccc2C(C)C)[C@H]2CCOC2)c(OC(F)F)n1 [Example 17, (S)-3-(2-(difluoromethoxy)-6-methylpyridin-3-yl)-1-(2-isopropylphenyl)-1-(tetrahydrofuran-3-yl)urea] | 10 to 100 |  |
| CC(C)c1ccccc1N(C(=O)Nc1ncc(Br)cc1OC(F)F)C1CC(CC(=O)O)C1 (centres unmarked) [Example 176] | 10 to 100 |  |
| Cc1ccc(NC(=O)N(CC23CC(C(=O)O)(CO2)C3)c2ccccc2C(C)C)c(OC(F)F)n1 [Example 168] | 10 to 100 |  |
| C=C(C)c1ccccc1N(C(=O)Nc1ccc(C)nc1OC(F)F)C1CCN(C(C)=O)CC1 [Example 29, 1-(1-acetylpiperidin-4-yl)-3-(2-(difluoromethoxy)-6-methylpyridin-3-yl)-1-(2-(prop-1-en-2-yl)phenyl)urea] |  | 10 to 100 |
| Cc1ccc(NC(=O)N(c2ccccc2C(C)C)[C@H]2C[C@H](C#N)C2)c(OC(F)F)n1 [Example 25, 1-((1r,3r)-3-cyanocyclobutyl)-3-(2-(difluoromethoxy)-6-methylpyridin-3-yl)-1-(2-isopropylphenyl)urea] | 100 to 1000 |  |
| CC(=O)N1CC2(CCC(N(C(=O)Nc3ccc(C)nc3OC(F)F)c3ccccc3C(C)C)CC2)C1 [Example 250, 1-(2-acetyl-2-azaspiro[3.5]nonan-7-yl)-3-(2-(difluoromethoxy)-6-methylpyridin-3-yl)-1-(2-isopropylphenyl)urea] | 100 to 1000 |  |
| Cc1ccc(NC(=O)N(c2ccccc2C(C)C)[C@@H]2CCC[C@H](C(=O)O)C2)c(OC(F)F)n1 [Example 287] | 100 to 1000 |  |
| COc1cc(C)c(Cl)cc1NC(=O)N(c1ccccc1C(C)C)[C@H]1CC[C@H](C(=O)O)CC1 [Example 328, (1r,4r)-4-(3-(5-chloro-2-methoxy-4-methylphenyl)-1-(2-isopropylphenyl)ureido)cyclohexane-1-carboxylic acid] | 10 to 100 |  |
| [2H]C([2H])([2H])c1ccc(NC(=O)N(c2ccccc2C(C)C)[C@H]2CC[C@H](C(=O)O)CC2)c(OC(F)F)n1 [Example 156, trans-4-(3-(2-(difluoromethoxy)-6-(methyl-d3)pyridin-3-yl)-1-(2-isopropylphenyl)ureido)cyclohexane-1-carboxylic acid] | < 10 |  |
| Cc1ccc(NC(=O)N(c2ccccc2C(C)C)[C@H]2CC[C@@H](C=O)CC2)c(OC(F)F)n1 [Example 244] | > 1000 |  |
| COc1ccc(NC(=O)N(c2ccccc2C2CC2)[C@H]2CC[C@H](C(=O)O)CC2)c(OC(F)F)n1 [Example 275] | 10 to 100 |  |
| COc1ccc(NC(=O)N(c2ccccc2C(C)C)C2CN(C(C)=O)C2)c(OC)n1 [Example 118] | 100 to 1000 |  |
| COc1ccc(NC(=O)N(c2ccccc2C(C)C)[C@H]2CC[C@H](c3cc(O)no3)CC2)c(OC(F)F)n1 [Example 283, 3-(2-(difluoromethoxy)-6-methoxypyridin-3-yl)-1-((1r,4r)-4-(3-hydroxyisoxazol-5-yl)cyclohexyl)-1-(2-isopropylphenyl)urea] | 10 to 100 |  |
| CC(=O)N1CC(N(C(=O)Nc2ncc(Cl)cc2OC(F)F)c2ccccc2C(C)C)C1 [Example 120] | 100 to 1000 |  |
| Cc1ccc(NC(=O)N(c2ccccc2C(C)C)C2CC3(CC(C(=O)O)C3)C2)c(OC(F)F)n1 (centres unmarked) [Example 229] | 10 to 100 |  |
| COCC(=O)N1CC(N(C(=O)Nc2ccc(C)nc2OC(F)F)c2ccccc2C(C)C)C1 [Example 82, 3-(2-(difluoromethoxy)-6-methylpyridin-3-yl)-1-(2-isopropylphenyl)-1-(1-(2-methoxyacetyl)azetidin-3-yl)urea] | 10 to 100 |  |
| CC(C)c1ccccc1N(C(=O)Nc1ncc(Cl)cc1OC(F)F)[C@H]1CC[C@H](C(=O)O)CC1 [Example 336, (1r,4r)-4-(3-(5-chloro-3-(difluoromethoxy)pyridin-2-yl)-1-(2-isopropylphenyl)ureido)cyclohexane-1-carboxylic acid] | 10 to 100 |  |
| COC[C@H](C)Oc1nc(C)ccc1NC(=O)N(c1ccccc1C(C)C)[C@H]1CC[C@H](C(=O)O)CC1 [Example 316, trans-4-(1-(2-isopropylphenyl)-3-(2-(((S)-1-methoxypropan-2-yl)oxy)-6-methylpyridin-3-yl)ureido)cyclohexane-1-carboxylic acid] | 10 to 100 |  |
| COc1ccc(NC(=O)N(c2ccccc2C(C)C)C2CCCN(C(C)=O)C2)c(OC(F)F)n1 (centres unmarked) [Example 43, 1-(1-acetylpiperidin-3-yl)-3-(2-(difluoromethoxy)-6-methoxypyridin-3-yl)-1-(2-isopropylphenyl)urea] | 100 to 1000 |  |
| CC(C)c1ccccc1N(C(=O)Nc1cc(F)c(F)cc1OC(F)F)[C@H]1CC[C@H](C(=O)O)CC1 [Example 298, (1r,4r)-4-(3-(2-(difluoromethoxy)-4,5-difluorophenyl)-1-(2-isopropylphenyl)ureido)cyclohexane-1-carboxylic acid] | < 10 |  |
| COc1ccc(NC(=O)N(c2ccccc2C(C)C)[C@H]2CC[C@H](C(=O)O)CC2)c(OC(F)F)n1 [Example 144, trans-4-(3-(2-(difluoromethoxy)-6-methoxypyridin-3-yl)-1-(2-isopropylphenyl)ureido)cyclohexane-1-carboxylic acid] | 10 to 100 |  |

| Structure (SMILES) | IC50 [1] [nM] | IC50 (LPAR1 IC50) [nM] |
| --- | --- | --- |
| CC(=O)N1CCC(N(C(=O)Nc2ccc(C)nc2OC(F)F)c2cccc(C)c2)CC1 [Example 33, 1-(1-acetylpiperidin-4-yl)-3-(2-(difluoromethoxy)-6-methylpyridin-3-yl)-1-(m-tolyl)urea] |  | > 1000 |
| COc1ccc(NC(=O)N(c2ccccc2C(C)C)[C@H]2CC[C@H](C(=O)O)CC2)c(OCCF)n1 [Example 315, (1r,4r)-4-(3-(2-(2-fluoroethoxy)-6-methoxypyridin-3-yl)-1-(2-isopropylphenyl)ureido)cyclohexane-1-carboxylic acid] | 10 to 100 |  |
| Cc1ccc(NC(=O)N(c2ccccc2C(C)C)[C@H]2C[C@@H](CC(N)=O)C2)c(OC(F)F)n1 [Example 189] | 100 to 1000 |  |
| CC(C)(C)c1ccccc1N(C(=O)Nc1ncc(Br)cc1OC(F)F)C1CCC(C(=O)O)CC1 (centres unmarked) [Example 273] | 10 to 100 |  |
| Cc1ccc(NC(=O)N(c2ccccc2C(C)C)C2CCOCC2)c(OC(F)F)n1 [Example 18, 3-(2-(difluoromethoxy)-6-methylpyridin-3-yl)-1-(2-isopropylphenyl)-1-(tetrahydro-2H-pyran-4-yl)urea] | 10 to 100 |  |
| CC(=O)N1CCC(N(C(=O)Nc2ncc(Br)cc2C=O)c2ccccc2C(C)C)CC1 [Example 140] |  | 100 to 1000 |
| Cc1ccc(NC(=O)N(c2ccccc2C(C)C)C2CCC(=O)CC2)c(OC(F)F)n1 [Example 243] | 100 to 1000 |  |
| CC(=O)N1CC2(CC(N(C(=O)Nc3ccc(C)nc3OC(F)F)c3ccccc3C(C)C)C2)C1 [Example 70, 1-(2-acetyl-2-azaspiro[3.3]heptan-6-yl)-3-(2-(difluoromethoxy)-6-methylpyridin-3-yl)-1-(2-isopropylphenyl)urea] | 100 to 1000 |  |
| Cc1ccc(NC(=O)N(c2ccccc2C(C)C)C2COC2)c(OC(F)F)n1 [Example 14, 3-(2-(difluoromethoxy)-6-methylpyridin-3-yl)-1-(2-isopropylphenyl)-1-(oxetan-3-yl)urea] | 10 to 100 |  |
| CC(=O)NC1CC(N(C(=O)Nc2ccc(C)nc2OC(F)F)c2ccccc2C(C)C)C1 (centres unmarked) [Example 271, N-(3-(3-(2-(difluoromethoxy)-6-methylpyridin-3-yl)-1-(2-isopropylphenyl)ureido)cyclobutyl)acetamide] | 100 to 1000 |  |
| Cc1ccc(NC(=O)N(c2ccccc2C(C)C)[C@H]2CC[C@@H](C(C)(C)O)CC2)c(OC(F)F)n1 [Example 238, 3-(2-(difluoromethoxy)-6-methylpyridin-3-yl)-1-((1s,4s)-4-(2-hydroxypropan-2-yl)cyclohexyl)-1-(2-isopropylphenyl)urea] | 100 to 1000 |  |
| COc1ccc(NC(=O)N(c2ccccc2C(C)(C)F)[C@H]2CC[C@H](C(=O)O)CC2)c(OC(F)F)n1 [Example 278, (1r,4r)-4-(3-(2-(difluoromethoxy)-6-methoxypyridin-3-yl)-1-(2-(2-fluoropropan-2-yl)phenyl)ureido)cyclohexane-1-carboxylic acid] | 10 to 100 |  |
| COc1ccc(NC(=O)N(c2ccccc2C(C)C)[C@H]2CC[C@H](C(=O)O)CC2)c(OCC(F)F)n1 [Example 289, (1r,4r)-4-(3-(2-(2,2-difluoroethoxy)-6-methoxypyridin-3-yl)-1-(2-isopropylphenyl)ureido)cyclohexane-1-carboxylic acid] | < 10 |  |
| COc1ccc(NC(=O)N(c2ccccc2C(C)C)[C@H]2CC[C@H](C(=O)O)CC2)c(OCc2ccccc2)n1 [Example 253, (1r,4r)-4-(3-(2-(benzyloxy)-6-methoxypyridin-3-yl)-1-(2-isopropylphenyl)ureido)cyclohexane-1-carboxylic acid] | 10 to 100 |  |
| COc1nc(C(F)F)ccc1NC(=O)N(c1ccccc1C(C)C)C1CCN(C(C)=O)CC1 [Example 113] |  | 10 to 100 |
| Cc1ccc(NC(=O)N(CC2CS(=O)(=O)C2)c2ccccc2C(C)C)c(OC(F)F)n1 [Example 19, 3-(2-(difluoromethoxy)-6-methylpyridin-3-yl)-1-((1,1-dioxidothietan-3-yl)methyl)-1-(2-isopropylphenyl)urea] | 100 to 1000 |  |
| Cc1ccc(NC(=O)N(c2ccccc2C(C)C)[C@H]2C[C@@H](CC#N)C2)c(OC(F)F)n1 [Example 28, 1-((1r,3s)-3-(cyanomethyl)cyclobutyl)-3-(2-(difluoromethoxy)-6-methylpyridin-3-yl)-1-(2-isopropylphenyl)urea] | 10 to 100 |  |
| Cc1ccc(NC(=O)N(c2ccccc2C(C)C)[C@H]2C[C@@H](O)C2)c(OC(F)F)n1 [Example 182] | 100 to 1000 |  |
| Cc1ccc(NC(=O)N(c2ccccc2C(C)C)[C@H]2CC[C@H](S(C)(=O)=O)CC2)c(OC(F)F)n1 [Example 256, 3-(2-(difluoromethoxy)-6-methylpyridin-3-yl)-1-(2-isopropylphenyl)-1-((1r,4r)-4-(methylsulfonyl)cyclohexyl)urea] | 100 to 1000 |  |
| COc1ccc(NC(=O)N(c2ccccc2C2CC2)[C@H]2CC[C@@H](C(=O)O)CC2)c(OC(F)F)n1 [Example 274] | 100 to 1000 |  |
